This is an account of results in publication PMC4182301, “Design, synthesis and SAR exploration of tri-substituted 1,2,4-triazoles as inhibitors of the annexin A2–S100A10 protein interaction” (Bioorganic & Medicinal Chemistry, 2014).

The assay addresses interaction between the AnxA2 N-terminus and S100A10 (Homo sapiens, UniProt P60903). As to the kind of experiment: Fluorescence screening assay (FRET competitive binding, Cy3-AnxA2(Ac1–14) peptide / Cy5-S100A10). As to conditions: for IC50 / pIC50 ± SE: FRET assay, 12 observations. The procedure:
Assessment of compound activity was performed as described.[35] Briefly, a Cy5-labelled S100A10 tracer was developed and binding of a Cy3-labelled AnxA2(Ac1–14) peptide ligand was assessed using a fluorescence resonance energy transfer readout. Assays were carried out in Nunc black non-treated 384-well plates at 20 °C in 50 μL buffer C. All incubations were performed in quadruplicate. Compounds, peptide and buffer controls were added to the wells in a 10 μL volume in 5% DMSO. Cy5-labelled S100A10 tracer (407 nM) and Cy3-labelled AnxA2(Ac1–14) peptide ligand (1.33 μM) were pre-incubated for 5 min at 20 °C and 40 μL of the preformed complex was then added to the wells and mixed for 10 s to yield a final DMSO concentration of 1%. After 5 min incubation at 20 °C, readings were taken on a Perkin Elmer Envision plate reader by excitation at 488 nm and emission at 695 nm. Fluorescence resonance energy transfer (FRET) was calculated by subtracting the sum of the fluorescence emission of S100A10-Cy5 and AA2(1–14)-Cy3 individually from that measured for the co-incubated partners. Compound binding was calculated as percentage of non-treated control and data were analysed by non-linear regression (dose response—variable slope with bottom and top parameters fixed at 0% and 100%, respectively) using Graphpad Prism Software to determine the IC50 of binding (primary assay).

The mark [1] stands for this setting: Table 1, read-out: pIC50 ± SE (converted).

Structures are written as SMILES. Read-outs that look alike come from different tables or passages of the source.

interaction between the AnxA2 N-terminus and S100A10, sequence (P60903 whole entry, species assumed): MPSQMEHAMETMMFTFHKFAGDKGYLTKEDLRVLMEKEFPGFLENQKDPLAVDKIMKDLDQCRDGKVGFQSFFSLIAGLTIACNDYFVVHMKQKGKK

As to `Cc1ccc(C)c(NC(=O)CSc2nnc(CSc3nc(C)cc(C)n3)n2Cc2ccco2)c1` [Compound 1a, N-(2,5-Dimethyl-phenyl)-2-[5-(4,6-dimethyl-pyrimidin-2-ylsulfanylmethyl)-4-furan-2-ylmethyl-4H-[1,2,4]triazol-3-ylsulfanyl]-acetamide], the IC50 is, setting by setting: (Table 1, read-out: IC50) 37 µM; under setting [1], 38 µM.
Regarding `Cc1nnc(NC(=O)CSc2nnc(Cc3ccccc3)n2Cc2ccccc2)s1` [Compound 1b], where the note is “Table 1, read-out: IC50”, the IC50 was 53 µM.
Regarding `COc1ccc(OCc2nnc(SC(C)C(=O)Nc3nccs3)n2-c2ccccc2)cc1` (centres unmarked) [Compound 1c], the IC50 was 108 µM (Table 1, read-out: IC50) and 110 µM under setting [1].
For the molecule `CCCCn1c(SCC(=O)Nc2cccc(C)n2)nnc1-c1ccco1` [Compound 1d], the IC50 is 103 µM (Table 1, read-out: IC50) and 105 µM under setting [1].
Take `Cc1cc(C)nc(SCc2nnc(SCC(N)=O)n2Cc2ccco2)n1` [Compound 27, 2-[5-(4,6-Dimethyl-pyrimidin-2-ylsulfanylmethyl)-4-furan-2-ylmethyl-4H-[1,2,4]triazol-3-ylsulfanyl]-acetamide]: the “pIC50 ± SE” value (Table 1) is reported as 3.75 ± 0.15. Also, the IC50 (Table 1, read-out: IC50) was determined as 178 µM.
The like results for `Cc1cc(C)nc(SCc2nnc(SCC(=O)Nc3nccs3)n2Cc2ccco2)n1` [Compound 28, 2-[5-(4,6-Dimethyl-pyrimidin-2-ylsulfanylmethyl)-4-furan-2-ylmethyl-4H-[1,2,4]triazol-3-ylsulfanyl]-N-thiazol-2-yl-acetamide] were, in that order, 3.89 ± 0.06 and 129 µM.
With `Cc1cc(C)nc(SCc2nnc(SCC(=O)Nc3nc(C)cs3)n2Cc2ccco2)n1` [Compound 29, 2-[5-(4,6-Dimethyl-pyrimidin-2-ylsulfanylmethyl)-4-furan-2-ylmethyl-4H-[1,2,4]triazol-3-ylsulfanyl]-N-(4-methyl-thiazol-2-yl)-acetamide], the “pIC50 ± SE” value (Table 1) was 4.53 ± 0.06. The IC50 (Table 1, read-out: IC50) was 30 µM.
For `Cc1cc(C)nc(SCc2nnc(SCC(=O)Nc3cc(C)on3)n2Cc2ccco2)n1` [Compound 30, 2-[5-(4,6-Dimethyl-pyrimidin-2-ylsulfanylmethyl)-4-furan-2-ylmethyl-4H-[1,2,4]triazol-3-ylsulfanyl]-N-(5-methyl-isoxazol-3-yl)-acetamide], the “pIC50 ± SE” value (Table 1) came out at 4.37 ± 0.07. Also, the IC50 (Table 1, read-out: IC50) worked out at 43 µM.
The like results for `Cc1cc(C)nc(SCc2nnc(SCC(=O)Nc3ccccc3)n2Cc2ccco2)n1` [Compound 31, 2-[5-(4,6-Dimethyl-pyrimidin-2-ylsulfanylmethyl)-4-furan-2-ylmethyl-4H-[1,2,4]triazol-3-ylsulfanyl]-N-phenyl-acetamide] were, in that order, 4.63 ± 0.04 and 23 µM.
Turning to `Cc1cccc(NC(=O)CSc2nnc(CSc3nc(C)cc(C)n3)n2Cc2ccco2)c1` [Compound 32, 2-[5-(4,6-Dimethyl-pyrimidin-2-ylsulfanylmethyl)-4-furan-2-ylmethyl-4H-[1,2,4]triazol-3-ylsulfanyl]-N-m-tolyl-acetamide], the “pIC50 ± SE” value (Table 1) is recorded as 4.89 ± 0.04. In addition, the IC50 (Table 1, read-out: IC50) was determined as 13 µM.
On the same counts, the results for `Cc1ccc(NC(=O)CSc2nnc(CSc3nc(C)cc(C)n3)n2Cc2ccco2)cc1` [Compound 33, 2-[5-(4,6-Dimethyl-pyrimidin-2-ylsulfanylmethyl)-4-furan-2-ylmethyl-4H-[1,2,4]triazol-3-ylsulfanyl]-N-p-tolyl-acetamide] are 4.96 ± 0.04 and 11 µM.
The like results for `Cc1ccc(NC(=O)CSc2nnc(CSc3nc(C)cc(C)n3)n2Cc2ccco2)c(C)c1` [Compound 34, N-(2,4-Dimethyl-phenyl)-2-[5-(4,6-dimethyl-pyrimidin-2-ylsulfanylmethyl)-4-furan-2-ylmethyl-4H-[1,2,4]triazol-3-ylsulfanyl]-acetamide] were, in that order, 4.83 ± 0.04 and 15 µM.
The like results for `Cc1cc(C)nc(SCc2nnc(SCC(=O)Nc3ccc(C)c(C)c3)n2Cc2ccco2)n1` [Compound 35, N-(3,4-Dimethyl-phenyl)-2-[5-(4,6-dimethyl-pyrimidin-2-ylsulfanylmethyl)-4-furan-2-ylmethyl-4H-[1,2,4]triazol-3-ylsulfanyl]-acetamide] were, in that order, 5.02 ± 0.04 and 10 µM.
For `Cc1cc(C)nc(SCc2nnc(SCC(=O)Nc3ccc(C(F)(F)F)cc3)n2Cc2ccco2)n1` [Compound 37, 2-[5-(4,6-Dimethyl-pyrimidin-2-ylsulfanylmethyl)-4-furan-2-ylmethyl-4H-[1,2,4]triazol-3-ylsulfanyl]-N-(4-trifluoromethyl-phenyl)-acetamide], under “Table 1”, the “pIC50 ± SE” value was found to be 4.55 ± 0.07. The IC50 (Table 1, read-out: IC50) was 28 µM.
On the same counts, the results for `Cc1cc(C)nc(SCc2nnc(SCC(=O)Nc3cc(C(F)(F)F)cc(C(F)(F)F)c3)n2Cc2ccco2)n1` [Compound 38, N-(3,5-Bis-trifluoromethyl-phenyl)-2-[5-(4,6-dimethyl-pyrimidin-2-ylsulfanylmethyl)-4-furan-2-ylmethyl-4H-[1,2,4]triazol-3-ylsulfanyl]-acetamide] are 5.05 ± 0.03 and 9 µM.
For `Cc1cc(C)nc(SCc2nnc(SCC(=O)Nc3ccc(Cl)cc3)n2Cc2ccco2)n1` [Compound 39, N-(4-Chloro-phenyl)-2-[5-(4,6-dimethyl-pyrimidin-2-ylsulfanylmethyl)-4-furan-2-ylmethyl-4H-[1,2,4]triazol-3-ylsulfanyl]-acetamide], the “pIC50 ± SE” value (Table 1) is 4.76 ± 0.03. Besides, under “Table 1, read-out: IC50”, the IC50 is 17 µM.
Take `Cc1cc(C)nc(SCc2nnc(SCC(=O)Nc3ccc(Br)cc3)n2Cc2ccco2)n1` [Compound 40, N-(4-Bromo-phenyl)-2-[5-(4,6-dimethyl-pyrimidin-2-ylsulfanylmethyl)-4-furan-2-ylmethyl-4H-[1,2,4]triazol-3-ylsulfanyl]-acetamide]: the “pIC50 ± SE” value (Table 1) worked out at 5.14 ± 0.03. Further, the IC50 (Table 1, read-out: IC50) amounted to 7 µM. Further, the “fold increase in potency compared to initial hit compound 1a” value (relative to 1a) is 5 fold.
In the case of `C=CCn1c(CSc2nc(C)cc(C)n2)nnc1SCC(=O)Nc1ccc(C)c(C)c1` [Compound 41, 2-[4-Allyl-5-(4,6-dimethyl-pyrimidin-2-ylsulfanylmethyl)-4H-[1,2,4]triazol-3-ylsulfanyl]-N-(3,4-dimethyl-phenyl)-acetamide], where the note is “Table 2”, the “pIC50 ± SE” value was determined as 4.56 ± 0.03. The IC50 (Table 2, read-out: IC50) stood at 27 µM.
On the same counts, the results for `COCCCn1c(CSc2nc(C)cc(C)n2)nnc1SCC(=O)Nc1ccc(C)c(C)c1` [Compound 42, N-(3,4-Dimethyl-phenyl)-2-[5-(4,6-dimethyl-pyrimidin-2-ylsulfanylmethyl)-4-(3-methoxy-propyl)-4H-[1,2,4]triazol-3-ylsulfanyl]-acetamide] are 4.49 ± 0.04 and 32 µM.
Regarding `COc1ccc(-n2c(CSc3nc(C)cc(C)n3)nnc2SCC(=O)Nc2ccc(C)c(C)c2)cc1` [Compound 43, N-(3,4-Dimethyl-phenyl)-2-[5-(4,6-dimethyl-pyrimidin-2-ylsulfanylmethyl)-4-(4-methoxy-phenyl)-4H-[1,2,4]triazol-3-ylsulfanyl]-acetamide], the “pIC50 ± SE” value (Table 2) is 4.29 ± 0.09. The IC50 (Table 2, read-out: IC50) was 52 µM.
On the same counts, the results for `Cc1cc(C)nc(SCc2nnc(SCC(=O)Nc3ccc(C)c(C)c3)n2-c2ccc(Cl)cc2)n1` [Compound 44, 2-[4-(4-Chloro-phenyl)-5-(4,6-dimethyl-pyrimidin-2-ylsulfanylmethyl)-4H-[1,2,4]triazol-3-ylsulfanyl]-N-(3,4-dimethyl-phenyl)-acetamide] are 4.23 ± 0.08 and 59 µM.
The like results for `Cc1cc(C)nc(SCc2nnc(SCCC(=O)Nc3ccc(C)c(C)c3)n2Cc2ccco2)n1` [Compound 45, N-(3,4-Dimethyl-phenyl)-3-[5-(4,6-dimethyl-pyrimidin-2-ylsulfanylmethyl)-4-furan-2-ylmethyl-4H-[1,2,4]triazol-3-ylsulfanyl]-propionamide] were, in that order, 4.62 ± 0.03 and 24 µM.
Take `C=CCn1c(CSc2nc(C)cc(C)n2)nnc1SCC(=O)Nc1ccc(C(C)C)cc1` [Compound 46, 2-[4-Allyl-5-(4,6-dimethyl-pyrimidin-2-ylsulfanylmethyl)-4H-[1,2,4]triazol-3-ylsulfanyl]-N-(4-isopropyl-phenyl)-acetamide]: the “pIC50 ± SE” value (Table 2) was 5.01 ± 0.03. In addition, under “Table 2, read-out: IC50”, the IC50 turned out to be 10 µM.
On the same counts, the results for `COCCCn1c(CSc2nc(C)cc(C)n2)nnc1SCC(=O)Nc1ccc(C(C)C)cc1` [Compound 47, 2-[5-(4,6-Dimethyl-pyrimidin-2-ylsulfanylmethyl)-4-(3-methoxy-propyl)-4H-[1,2,4]triazol-3-ylsulfanyl]-N-(4-isopropyl-phenyl)-acetamide] are 5.13 ± 0.04 and 7 µM.
In the case of `COc1ccc(-n2c(CSc3nc(C)cc(C)n3)nnc2SCC(=O)Nc2ccc(C(C)C)cc2)cc1` [Compound 48, 2-[5-(4,6-Dimethyl-pyrimidin-2-ylsulfanylmethyl)-4-(4-methoxy-phenyl)-4H-[1,2,4]triazol-3-ylsulfanyl]-N-(4-isopropyl-phenyl)-acetamide], the “pIC50 ± SE” value (Table 2) is reported as 4.82 ± 0.02. Besides, the IC50 (Table 2, read-out: IC50) is 15 µM.
